Results published in ChEMBL document CHEMBL1145105, “Synthesis and benzodiazepine receptor affinity of pyrazolo[1,5-a]pyrimidine derivatives. 3. New 6-(3-thienyl) series as alpha 1 selective ligands” (J Med Chem, 2003).
“And” between values parts separate entries of the source, which are not always exact repeats. Equal entries are not always repeated.

Tests used:
[1] = biological target: GABA-A receptor; anion channel; assay: Inhibition of [3H]Ro-151788 binding to GABA-A central benzodiazepine receptor of bovine brain membranes; format: cell membranes, Bos taurus
[2] = biological target: GABA-A receptor; alpha-1/beta-2/gamma-2 (Rattus norvegicus, UniProt P18508+P62813+P63138); assay: Binding affinity for recombinant rat GABA-A receptor alpha-1-beta-2-gamma-2 subunits expressed in HEK293 cells; format: cell-based
Sequence of GABA-A receptor; alpha-1/beta-2/gamma-2 (P18508 whole entry): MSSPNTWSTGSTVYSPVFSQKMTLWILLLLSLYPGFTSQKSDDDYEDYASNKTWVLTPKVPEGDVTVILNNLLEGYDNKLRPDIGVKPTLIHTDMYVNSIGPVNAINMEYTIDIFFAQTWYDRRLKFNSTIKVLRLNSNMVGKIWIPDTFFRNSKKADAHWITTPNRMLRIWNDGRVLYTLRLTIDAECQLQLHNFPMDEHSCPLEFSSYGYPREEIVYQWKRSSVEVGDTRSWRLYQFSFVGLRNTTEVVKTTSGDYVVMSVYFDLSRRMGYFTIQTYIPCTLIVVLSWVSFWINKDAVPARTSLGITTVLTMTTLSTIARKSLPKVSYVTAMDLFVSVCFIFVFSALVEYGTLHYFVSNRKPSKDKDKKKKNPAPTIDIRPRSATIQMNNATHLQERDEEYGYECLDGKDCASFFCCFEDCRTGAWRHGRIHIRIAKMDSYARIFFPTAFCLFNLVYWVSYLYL
Sequence of GABA-A receptor; alpha-1/beta-2/gamma-2 (P62813 whole entry): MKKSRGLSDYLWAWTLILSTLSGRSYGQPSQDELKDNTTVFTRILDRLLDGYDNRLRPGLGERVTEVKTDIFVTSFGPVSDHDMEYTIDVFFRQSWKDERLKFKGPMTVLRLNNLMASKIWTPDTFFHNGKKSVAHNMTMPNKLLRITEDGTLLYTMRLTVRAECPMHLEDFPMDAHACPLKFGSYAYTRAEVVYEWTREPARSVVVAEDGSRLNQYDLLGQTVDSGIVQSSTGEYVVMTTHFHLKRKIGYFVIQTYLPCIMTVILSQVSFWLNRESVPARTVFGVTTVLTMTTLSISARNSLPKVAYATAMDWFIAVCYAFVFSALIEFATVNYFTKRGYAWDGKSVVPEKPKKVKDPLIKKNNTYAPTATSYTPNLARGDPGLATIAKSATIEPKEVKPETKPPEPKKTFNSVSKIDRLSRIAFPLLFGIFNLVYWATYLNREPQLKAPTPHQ
Sequence of GABA-A receptor; alpha-1/beta-2/gamma-2 (P63138 whole entry): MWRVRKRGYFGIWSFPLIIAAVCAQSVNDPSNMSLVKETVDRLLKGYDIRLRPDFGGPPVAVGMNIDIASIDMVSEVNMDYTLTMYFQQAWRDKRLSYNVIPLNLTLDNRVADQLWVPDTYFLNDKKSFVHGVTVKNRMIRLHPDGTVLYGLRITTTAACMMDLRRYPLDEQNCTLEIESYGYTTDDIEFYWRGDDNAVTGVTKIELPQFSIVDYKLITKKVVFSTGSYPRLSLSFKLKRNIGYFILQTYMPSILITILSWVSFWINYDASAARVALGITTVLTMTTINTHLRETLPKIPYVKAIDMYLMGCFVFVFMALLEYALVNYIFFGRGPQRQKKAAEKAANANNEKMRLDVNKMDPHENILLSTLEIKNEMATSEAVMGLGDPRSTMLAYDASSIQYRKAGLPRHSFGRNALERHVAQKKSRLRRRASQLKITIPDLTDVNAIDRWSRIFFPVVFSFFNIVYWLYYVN

[3] = biological target: T1, GABA-A receptor; anion channel (Bos taurus) (UniProt P10063+P08220+P20237+P08219+P10064+P22300); assay: Relative binding to GABA-A receptor in the presence and absence of GABA (GABA shift), Ki(-GABA)/Ki(+GABA); format: protein-complex assay
[4] = biological target: T1, GABA-A receptor; anion channel (Bos taurus); assay: Percent inhibition of [3H]Ro-151788 binding to bovine brain GABA-A central benzodiazepine receptor at 0.2 nM
[5] = biological target: T2, GABA A receptor alpha-2/beta-2/gamma-2 (Rattus norvegicus, UniProt P18508+P23576+P63138); assay: Binding affinity for recombinant rat alpha-2-beta-2-gamma-2 GABA-A receptor subunits expressed in HEK293 cells; format: cell-based
T2 sequence (P18508 whole entry): as the sequence (P18508 whole entry) above
T2 sequence (P23576 whole entry): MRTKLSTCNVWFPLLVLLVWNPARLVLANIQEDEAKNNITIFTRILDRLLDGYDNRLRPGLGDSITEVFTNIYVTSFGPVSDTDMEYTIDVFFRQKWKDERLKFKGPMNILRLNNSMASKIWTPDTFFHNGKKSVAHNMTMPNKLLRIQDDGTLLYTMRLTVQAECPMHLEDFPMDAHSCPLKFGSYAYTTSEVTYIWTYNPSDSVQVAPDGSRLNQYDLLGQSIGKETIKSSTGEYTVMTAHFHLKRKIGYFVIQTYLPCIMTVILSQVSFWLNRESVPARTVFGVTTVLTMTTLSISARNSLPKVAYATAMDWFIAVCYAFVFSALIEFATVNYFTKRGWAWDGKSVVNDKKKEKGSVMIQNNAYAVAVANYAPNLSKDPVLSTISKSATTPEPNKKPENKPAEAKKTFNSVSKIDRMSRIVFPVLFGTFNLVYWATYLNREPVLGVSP
T2 sequence (P63138 whole entry): as the sequence (P63138 whole entry) above

[6] = biological target: GABA A receptor alpha-5/beta-3/gamma-2 (Rattus norvegicus, UniProt P18508+P19969+P63079); assay: Binding affinity for recombinant rat GABA-A receptor alpha-5-beta-3-gamma-2 subunits expressed in HEK 293 cells; format: cell-based, HEK293
Sequence of GABA A receptor alpha-5/beta-3/gamma-2 (P18508 whole entry): as the sequence (P18508 whole entry) above
Sequence of GABA A receptor alpha-5/beta-3/gamma-2 (P19969 whole entry): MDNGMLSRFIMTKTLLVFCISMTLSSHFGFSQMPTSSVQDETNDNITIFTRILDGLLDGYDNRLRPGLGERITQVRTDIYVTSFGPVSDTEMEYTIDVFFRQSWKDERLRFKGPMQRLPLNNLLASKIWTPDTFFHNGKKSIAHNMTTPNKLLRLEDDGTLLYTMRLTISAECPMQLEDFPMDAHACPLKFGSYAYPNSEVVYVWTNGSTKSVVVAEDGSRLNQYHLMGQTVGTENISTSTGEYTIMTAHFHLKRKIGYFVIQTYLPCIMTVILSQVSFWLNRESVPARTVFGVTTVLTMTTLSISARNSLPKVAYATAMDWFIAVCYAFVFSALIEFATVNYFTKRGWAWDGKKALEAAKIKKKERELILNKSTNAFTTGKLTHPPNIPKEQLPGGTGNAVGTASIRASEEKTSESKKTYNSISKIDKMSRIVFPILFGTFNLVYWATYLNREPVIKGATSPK
Sequence of GABA A receptor alpha-5/beta-3/gamma-2 (P63079 whole entry): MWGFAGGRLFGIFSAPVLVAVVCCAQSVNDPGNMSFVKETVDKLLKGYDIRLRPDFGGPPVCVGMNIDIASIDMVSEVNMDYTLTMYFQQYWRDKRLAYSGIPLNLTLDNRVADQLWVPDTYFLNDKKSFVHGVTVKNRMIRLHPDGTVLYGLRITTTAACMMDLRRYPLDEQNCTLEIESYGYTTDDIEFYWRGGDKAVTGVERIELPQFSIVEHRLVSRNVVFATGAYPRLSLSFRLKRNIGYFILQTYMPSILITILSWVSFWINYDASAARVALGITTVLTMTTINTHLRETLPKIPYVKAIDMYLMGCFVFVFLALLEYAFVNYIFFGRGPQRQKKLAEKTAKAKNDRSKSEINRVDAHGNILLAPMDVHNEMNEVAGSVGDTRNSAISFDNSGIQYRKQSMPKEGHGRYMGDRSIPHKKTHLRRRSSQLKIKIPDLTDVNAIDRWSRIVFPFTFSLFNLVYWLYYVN

[7] = biological target: GABA A receptor alpha-3/beta-2/gamma-2 (Rattus norvegicus, UniProt P18508+P20236+P63138); assay: Binding affinity for recombinant rat GABA-A receptor alpha-3-beta-2-gamma-2 subunits expressed in HEK293 cells; format: cell-based
Sequence of GABA A receptor alpha-3/beta-2/gamma-2 (P18508 whole entry): as the sequence (P18508 whole entry) above
Sequence of GABA A receptor alpha-3/beta-2/gamma-2 (P20236 whole entry): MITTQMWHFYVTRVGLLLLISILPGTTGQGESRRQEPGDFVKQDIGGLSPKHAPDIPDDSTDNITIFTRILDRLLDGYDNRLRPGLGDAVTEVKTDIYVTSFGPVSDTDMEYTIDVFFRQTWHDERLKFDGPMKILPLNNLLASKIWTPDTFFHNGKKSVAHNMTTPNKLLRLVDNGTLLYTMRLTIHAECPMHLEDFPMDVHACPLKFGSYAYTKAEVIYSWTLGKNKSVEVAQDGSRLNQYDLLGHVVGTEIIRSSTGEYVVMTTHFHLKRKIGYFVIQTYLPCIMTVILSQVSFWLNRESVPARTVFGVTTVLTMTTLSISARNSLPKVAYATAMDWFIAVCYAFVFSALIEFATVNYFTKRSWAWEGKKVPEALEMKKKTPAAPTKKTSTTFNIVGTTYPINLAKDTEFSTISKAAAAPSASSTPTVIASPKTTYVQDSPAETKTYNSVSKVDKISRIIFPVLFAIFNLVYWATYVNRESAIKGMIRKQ
Sequence of GABA A receptor alpha-3/beta-2/gamma-2 (P63138 whole entry): as the sequence (P63138 whole entry) above

[8] = biological target: T2, GABA A receptor alpha-2/beta-2/gamma-2; assay: Binding affinity for recombinant rat GABA-A receptor alpha-2-beta-2-gamma-2 subunits expressed in HEK293 cells; format: cell-based
Mus musculus [9] = assay: Percent anticonvulsant activity against PTZ induced attack in mice at dose of 10 mg/kg; format: functional
Mus musculus [10] = assay: Antianxiety activity was tested in mice at dose of 10 mg/kg in light; format: functional
Mus musculus [11] = assay: Synergic sedative effect was tested in mice using the Hole Board test at peroral dose of 10 mg/kg, value was expressed in holes; format: functional; conditions: route oral
Mus musculus [12] = assay: Synergic sedative effect was tested in mice using the Hole Board test at peroral dose of 10 mg/kg, value was expressed in plane; format: functional; conditions: route oral
Mus musculus [13] = assay: Muscle relaxant effect in mice at dose of 10 mg/kg using rotarod test, value was expressed as no. of falls in 30 seconds; format: functional
Mus musculus [14] = assay: Antianxiety activity was tested in mice at dose of 10 mg/kg using light/dark box test; format: functional
Mus musculus [15] = assay: Antianxiety activity was tested in mice at dose of 30 mg/kg using light/dark box test; format: functional
Mus musculus [16] = assay: Muscle relaxant effect in mice at dose of 30 mg/kg using rotarod test, value was expressed as no. of falls in 30 seconds; format: functional
Mus musculus [17] = assay: Percent anticonvulsant activity against PTZ induced attack in mice at dose of 30 mg/kg; format: functional
Mus musculus [18] = assay: Antianxiety activity was tested in mice at dose of 30 mg/kg in light; format: functional
Mus musculus [19] = assay: Antianxiety activity was tested in mice at peroral dose of 0.3 mg/kg using light/dark box test; format: functional; conditions: route oral
Mus musculus [20] = assay: Antianxiety activity was tested in mice at peroral dose of 1 mg/kg using light/dark box test; format: functional; conditions: route oral
Mus musculus [21] = assay: Muscle relaxant effect in mice at peroral dose of 1 mg/kg using rotarod test, value was expressed as no. of falls in 30 seconds; format: functional; conditions: route oral
Mus musculus [22] = assay: Muscle relaxant effect in mice at peroral dose of 0.3 mg/kg using rotarod test, value was expressed as no. of falls in 30 seconds; format: functional; conditions: route oral
Mus musculus [23] = assay: Antianxiety activity was tested in mice at peroral dose of 0.3 mg/kg in light; format: functional; conditions: route oral
Mus musculus [24] = assay: Antianxiety activity was tested in mice at peroral dose of 1 mg/kg in light; format: functional; conditions: route oral
Mus musculus [25] = assay: Synergic sedative effect was tested in mice using the Hole Board test at peroral dose of 30 mg/kg, value was expressed in holes; format: functional; conditions: route oral
Mus musculus [26] = assay: Synergic sedative effect was tested in mice using the Hole Board test at peroral dose of 30 mg/kg, value was expressed in plane; format: functional; conditions: route oral
Mus musculus [27] = assay: Muscle relaxant effect in mice at dose of 3 mg/kg using rotarod test, value was expressed as no. of falls in 30 seconds; format: functional
Mus musculus [28] = assay: Percent anticonvulsant activity against PTZ induced attack in mice at dose of 3 mg/kg; format: functional
Mus musculus [29] = assay: Synergic sedative effect was tested in mice using the Hole Board test at peroral dose of 3 mg/kg, value was expressed in holes; format: functional; conditions: route oral
Mus musculus [30] = assay: Synergic sedative effect was tested in mice using the Hole Board test at peroral dose of 3 mg/kg, value was expressed in plane; format: functional; conditions: route oral

| Structure (SMILES) | Ki [1] | Ki [2] | Ratio [3] | inhibition [4] | Ki [6] | Ki [8] | Activity (Mus musculus [9]) | No. of falls (Mus musculus [13]) | further results |
| --- | --- | --- | --- | --- | --- | --- | --- | --- | --- |
| COc1cccc(-c2cnn3c(O)c(-c4ccsc4)cnc23)c1 | 42.2 nM | 43 nM | 1.25 | 92% | 737 nM |  |  |  | Ki [5]: 827 nM |
| Oc1c(-c2ccsc2)cnc2c(-c3cccc(Br)c3)cnn12 | 8.8 nM | 10 nM | 1.72 | 87% | 22 nM | 291 nM |  |  | Ki [7]: 111 nM |
| CN1C(=O)CN=C(c2ccccc2)c2cc(Cl)ccc21.Oc1c(-c2ccsc2)cnc2c(-c3ccccn3)cnn12 |  |  |  |  |  |  | 90% | 0.5 | Time (Mus musculus [10]): 120.9 s; No. of counts (Mus musculus [11]): 25.8; No. of counts (Mus musculus [12]): 68; No. of crosses (Mus musculus [14]): 26.2 |
| Oc1c(-c2ccsc2)cnc2c(-c3ccccc3)cnn12 | 111 nM |  | 1.71 | 94% |  |  |  |  |  |
| Cc1cccc(-c2cnn3c(O)c(-c4ccsc4)cnc23)c1 | 26 nM |  | 2 | 97% |  |  |  |  |  |
| Oc1c(-c2ccsc2)cnc2c(-c3cccc(F)c3)cnn12 | 73 nM |  | 1.2 | 92% |  |  |  |  |  |
| Oc1c(-c2ccsc2)cnc2c(-c3ccc4ccccc4c3)cnn12 |  |  |  | 30% |  |  |  |  |  |
| Oc1c(-c2ccsc2)cnc2c(-c3ccsc3)cnn12 | 16 nM | 23 nM | 1.3 | 100% | 223 nM | 200 nM | 36.4% | 0 | Ki [7]: 196 nM; No. of crosses (Mus musculus [15]): 11.8; Time (Mus musculus [10]): 94.9 s; No. of falls (Mus musculus [16]): 0.3; No. of counts (Mus musculus [11]): 52.7; No. of counts (Mus musculus [12]): 12.2; Activity (Mus musculus [17]): 9.1%; Time (Mus musculus [18]): 72.3 s; No. of crosses (Mus musculus [14]): 19.7 |
| CN1C(=O)CN=C(c2ccccc2)c2cc(Cl)ccc21 [DIAZEPAM] |  |  |  |  |  |  |  |  | No. of crosses (Mus musculus [19]): 22; No. of crosses (Mus musculus [20]): 21.5; No. of falls (Mus musculus [21]): 0.7; No. of falls (Mus musculus [22]): 0.5; Time (Mus musculus [23]): 85 s; Time (Mus musculus [24]): 117.5 s |
| Cc1ccc(-c2nc3ccc(C)cn3c2CC(=O)N(C)C)cc1.Oc1c(-c2ccsc2)cnc2c(-c3ccccn3)cnn12 |  |  |  |  |  |  | 90% | 1.1 | No. of counts (Mus musculus [11]; 10 mg/kg): 25.8 and 9.38; No. of counts (Mus musculus [12]; 10 mg/kg): 68 and 28.7 |
| Oc1c(-c2ccsc2)cnc2c(-c3cccnc3)cnn12 | 30 nM | 25 nM | 1.51 | 100% | 210 nM | 315 nM |  |  |  |
| Oc1c(-c2ccsc2)cnc2c(-c3cccc(C(F)(F)F)c3)cnn12 | 5.8 nM | 10 nM | 2 | 96% | 207 nM | 540 nM | 29.4% | 0.1 | Ki [7]: 89 nM; No. of crosses (Mus musculus [15]): 12.7; Time (Mus musculus [10]): 69.4 s; No. of falls (Mus musculus [16]): 0.2; No. of counts (Mus musculus [11]): 60.7; No. of counts (Mus musculus [12]): 139.6; Activity (Mus musculus [17]): 0%; Time (Mus musculus [18]): 77.3 s; No. of crosses (Mus musculus [14]): 17.1 |
| Oc1c(-c2ccsc2)cnc2c(-c3cccc4ccccc34)cnn12 | 40 nM | 47 nM | 1.02 | 92% | 156 nM | > 10000 nM |  |  |  |
| Oc1c(-c2ccsc2)cnc2c(Cc3ccccc3)cnn12 |  |  |  | 55% |  |  |  |  |  |
| Oc1c(-c2ccsc2)cnc2c(-c3ccccn3)cnn12 | 3.9 nM | 7 nM | 1.1 | 98% | 740 nM | 927 nM | 19% | 0.3 | No. of counts (Mus musculus [25]): 50.9; Time (Mus musculus [10]): 90.6 s; No. of falls (Mus musculus [16]): 0.3; No. of counts (Mus musculus [11]): 55.9; No. of counts (Mus musculus [12]): 96.6; No. of counts (Mus musculus [26]): 110.4; Activity (Mus musculus [17]): 10%; No. of crosses (Mus musculus [14]): 19.6 |
| Cc1ccc(-c2nc3ccc(C)cn3c2CC(=O)N(C)C)cc1 [ZOLPIDEM] |  |  |  |  |  |  | 90% | 0.8 | No. of falls (Mus musculus [27]): 0.2; Activity (Mus musculus [28]): 70%; No. of counts (Mus musculus [11]): 26.3; No. of counts (Mus musculus [29]): 45; No. of counts (Mus musculus [12]): 54.4; No. of counts (Mus musculus [30]): 84.7 |
| Oc1c(-c2ccsc2)cnc2c(-c3ccc(F)cc3)cnn12 | 31 nM |  | 0.9 | 99% |  |  |  |  |  |
